Results as given in PubChem BioAssay (NCI).
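Grown in 96-well plates, cells were treated for 48 hours with each compound at five concentrations. Insufficient inhibition: endpoint recorded as highest concentration tested. TGI denotes the concentration required for complete inhibition of growth.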

What was measured:
Test in all cases: inhibition of tumour cell growth, NCI panel, 48 h
[1] = tested on: 786-0 renal
[2] = tested on: A498 renal
[3] = tested on: A549 NSCLC
[4] = tested on: ACHN renal
[5] = tested on: BT-549 breast
[6] = tested on: CAKI-1 renal
[7] = tested on: CCRF-CEM leukemia
[8] = tested on: COLO 205 colon
[9] = tested on: DU-145 prostate
[10] = tested on: EKVX NSCLC
[11] = tested on: HCC-2998 colon
[12] = tested on: HCT-116 colon
[13] = tested on: HCT-15 colon
[14] = tested on: HL-60(TB) leukemia
[15] = tested on: HOP-62 NSCLC
[16] = tested on: HOP-92 NSCLC
[17] = tested on: HS 578T breast
[18] = tested on: HT29 colon
[19] = tested on: IGROV1 ovarian
[20] = tested on: K-562 leukemia
[21] = tested on: KM12 colon
[22] = tested on: LOX IMVI melanoma
[23] = tested on: M14 melanoma
[24] = tested on: MALME-3M melanoma
[25] = tested on: MCF7 breast
[26] = tested on: MDA-MB-231 breast
[27] = tested on: MDA-MB-435
[28] = tested on: MDA-N
[29] = tested on: MOLT-4 leukemia
[30] = tested on: NCI-H226 lung
[31] = tested on: NCI-H23 lung
[32] = tested on: NCI-H460 lung
[33] = tested on: NCI-H522 lung
[34] = tested on: NCI/ADR-RES ovarian
[35] = tested on: OVCAR-3 ovarian
[36] = tested on: OVCAR-4 ovarian
[37] = tested on: OVCAR-5 ovarian
[38] = tested on: OVCAR-8 ovarian
[39] = tested on: PC-3 prostate
[40] = tested on: RPMI-8226 leukemia
[41] = tested on: RXF 393 renal
[42] = tested on: SF-268 CNS
[43] = tested on: SF-295 CNS
[44] = tested on: SF-539 CNS
[45] = tested on: SK-MEL-2 melanoma
[46] = tested on: SK-MEL-28 melanoma
[47] = tested on: SK-MEL-5 melanoma
[48] = tested on: SK-OV-3 ovarian
[49] = tested on: SN12C renal
[50] = tested on: SNB-19 CNS
[51] = tested on: SNB-75 CNS
[52] = tested on: SR leukemia
[53] = tested on: SW-620 colon
[54] = tested on: T-47D breast
[55] = tested on: TK-10 renal
[56] = tested on: UACC-257 melanoma
[57] = tested on: UACC-62 melanoma
[58] = tested on: UO-31 renal
[59] = tested on: U251 CNS

COc1ccc(Oc2ccc3cc4c(cc3c2O)OCO4)c2cc(C)oc12
TGI [1]: > 100 µM | TGI [2]: > 100 µM | TGI [3]: > 100 µM | TGI [4]: > 100 µM | TGI [5]: 71.4 µM | TGI [6]: > 100 µM | TGI [7]: 89.2 µM | TGI [8]: 72.3 µM | TGI [9]: > 100 µM | TGI [10]: > 100 µM | TGI [11]: 49.8 µM | TGI [12]: > 100 µM | TGI [13]: > 100 µM | TGI [14]: 83.9 µM | TGI [15]: > 100 µM | TGI [16]: 70.1 µM | TGI [17]: > 100 µM | TGI [18]: 55.3 µM | TGI [19]: > 100 µM | TGI [20]: 81.4 µM | TGI [21]: > 100 µM | TGI [22]: 43.9 µM | TGI [23]: 78.9 µM | TGI [24]: 74.8 µM | TGI [25]: > 100 µM | TGI [26]: > 100 µM | TGI [27]: 75.1 µM | TGI [28]: > 100 µM | TGI [29]: 65.3 µM | TGI [30]: 83.8 µM | TGI [31]: > 100 µM | TGI [32]: 64.3 µM | TGI [33]: 93.7 µM | TGI [34]: 78.8 µM | TGI [35]: > 100 µM | TGI [36]: > 100 µM | TGI [37]: > 100 µM | TGI [38]: > 100 µM | TGI [39]: > 100 µM | TGI [40]: 45.2 µM | TGI [41]: 45.1 µM | TGI [42]: > 100 µM | TGI [43]: > 100 µM | TGI [44]: > 100 µM | TGI [45]: 47.4 µM | TGI [46]: > 100 µM | TGI [47]: 32.3 µM | TGI [48]: > 100 µM | TGI [49]: > 100 µM | TGI [50]: > 100 µM | TGI [51]: > 100 µM | TGI [52]: 93.3 µM | TGI [53]: > 100 µM | TGI [54]: > 100 µM | TGI [55]: 93.7 µM | TGI [56]: 61.1 µM | TGI [57]: > 100 µM | TGI [58]: > 100 µM

CN(/N=C(\C(=O)O)c1ccccc1)C1=NCCN1
TGI [1]: > 100 µM | TGI [2]: > 100 µM | TGI [3]: > 100 µM | TGI [4]: > 100 µM | TGI [5]: > 100 µM | TGI [6]: > 100 µM | TGI [7]: > 100 µM | TGI [8]: > 100 µM | TGI [9]: > 100 µM | TGI [10]: > 100 µM | TGI [11]: > 100 µM | TGI [12]: > 100 µM | TGI [13]: > 100 µM | TGI [14]: > 100 µM | TGI [15]: > 100 µM | TGI [16]: > 100 µM | TGI [17]: > 100 µM | TGI [18]: > 100 µM | TGI [19]: > 100 µM | TGI [20]: > 100 µM | TGI [21]: > 100 µM | TGI [22]: > 100 µM | TGI [24]: > 100 µM | TGI [25]: > 100 µM | TGI [26]: > 100 µM | TGI [27]: > 100 µM | TGI [28]: > 100 µM | TGI [29]: > 100 µM | TGI [30]: > 100 µM | TGI [31]: > 100 µM | TGI [32]: > 100 µM | TGI [33]: > 100 µM | TGI [34]: > 100 µM | TGI [35]: > 100 µM | TGI [36]: > 100 µM | TGI [37]: > 100 µM | TGI [38]: > 100 µM | TGI [39]: > 100 µM | TGI [40]: > 100 µM | TGI [41]: > 100 µM | TGI [42]: > 100 µM | TGI [43]: > 100 µM | TGI [44]: > 100 µM | TGI [45]: > 100 µM | TGI [46]: > 100 µM | TGI [47]: > 100 µM | TGI [48]: > 100 µM | TGI [49]: > 100 µM | TGI [51]: > 100 µM | TGI [52]: > 100 µM | TGI [53]: > 100 µM | TGI [54]: > 100 µM | TGI [55]: > 100 µM | TGI [56]: > 100 µM | TGI [57]: > 100 µM | TGI [58]: > 100 µM

Cc1cc(Cc2cc(Cc3cc(C)cc(C(C)(C)C)c3O)c(C)cc2C)c(O)c(C(C)(C)C)c1
TGI [1]: 31.6 µM | TGI [2]: 30.6 µM | TGI [3]: 30.8 µM | TGI [4]: 30.3 µM | TGI [5]: 40.6 µM | TGI [6]: 42.9 µM | TGI [7]: 48.3 µM | TGI [8]: 36.7 µM | TGI [9]: 27.6 µM | TGI [10]: 34.5 µM | TGI [11]: 27.1 µM | TGI [12]: 30 µM | TGI [13]: 42 µM | TGI [14]: 46.9 µM | TGI [15]: 36.2 µM | TGI [16]: 29.2 µM | TGI [17]: 52 µM | TGI [18]: 34.7 µM | TGI [19]: 40.5 µM | TGI [20]: 45 µM | TGI [21]: 34.7 µM | TGI [22]: 41.9 µM | TGI [23]: 33.8 µM | TGI [24]: 31.7 µM | TGI [25]: 27.2 µM | TGI [26]: > 100 µM | TGI [27]: 26.2 µM | TGI [28]: 35 µM | TGI [29]: > 100 µM | TGI [30]: 31.5 µM | TGI [31]: 37.9 µM | TGI [33]: 34 µM | TGI [34]: 42.4 µM | TGI [35]: 32.9 µM | TGI [36]: 25.4 µM | TGI [37]: 42.9 µM | TGI [38]: 75.4 µM | TGI [39]: > 100 µM | TGI [40]: 65 µM | TGI [41]: 24.8 µM | TGI [42]: 35.4 µM | TGI [43]: 39.4 µM | TGI [45]: > 100 µM | TGI [46]: 37 µM | TGI [47]: 30.2 µM | TGI [48]: 35.6 µM | TGI [49]: 31.7 µM | TGI [50]: 31.9 µM | TGI [51]: 23.9 µM | TGI [52]: 70.6 µM | TGI [53]: 40.8 µM | TGI [54]: 34.8 µM | TGI [55]: 55.1 µM | TGI [59]: > 100 µM | TGI [56]: 34.8 µM | TGI [57]: 28.1 µM | TGI [58]: 32 µM
